These results are taken from paper PMC3399817 (PLoS ONE, 2012).

Holding throughout (type): cell-based
Assay [1] concerns phospho-JNK (Thr183/Tyr185). Kind of assay: Bio-Plex phospho-JNK. The note with it: HKe-3 cells, 1 µM. Here is the method: (§1) The Bio-Plex assay system was used to measure signaling in drug-treated cells. Briefly, cells were incubated in the presence of drug for various amounts of time and then lysed in Bio-Rad cell lysis buffer (Bio-Rad). Protein quantification was performed using BCA assay (Pierce) and 5 µg of protein from each sample was used for Bio-Plex analysis. Phospho-signaling assays were performed using available phospho-signaling assay kits and quantified on a Bio-Plex 200 system (Bio-Rad): p-Iκβα (Ser32/Ser36), p-JNK (Thr183/Tyr185), p-MEK1 (Ser217/Ser221), p-ERK1/2 (Thr202/Tyr204, Thr185/Tyr187), p-p90RSK (Thr359/Ser363), p-p38 (Thr180/Tyr182), p-c-JUN (Ser63), p-ATF2 (Thr71), p-AKT (Ser473), p-S6 (Ser235/Ser236), p-STAT3 (Ser727), p-STAT3 (Tyr705), and p-GSK3α/β (Ser21/Ser9). Bio-Plex assay for total MEK1 was also performed as a loading control.

For assay [2], the system named is HCT-116 (K-RAS^G13D/+). Kind of assay: Cell viability (Syto60). The note with it: 72 hours, HCT-116 compared to HKe-3, normalized to DMSO. Here is the method:
(§2) All colon cancer cell lines were maintained in DMEM supplemented with penicillin (100 units/mL), streptomycin (100 μg/mL), and 10% fetal bovine serum (FBS). The rectal cancer cell line (Car1) was maintained in DMEM/F12 supplemented with penicillin (100 units/mL)/streptomycin (50 μg/mL), and 5% FBS. […] The target sequences for knockdowns can be found in Table S2. In drug treatment experiments, cells were plated for 24 hours prior to exposure to drug. AZ-628 was obtained from AstraZeneca. CI-1040 was obtained from Pfizer. R406 was synthesized in the Gray laboratory. BAY61-3606 and IKK VII were purchased from EMD Biosciences. BAY derivatives were synthesized for this study.
(§3) Cell cycle analysis was performed via FACS-based propidium iodide quantification, using standard methods. To measure cell viability, cells were grown in 96-well plates in the presence or absence of drug for 72 hours, fixed with 4% paraformaldehyde, and then stained with Syto60 (Invitrogen). Plates were imaged and quantified using the LiCor Odyssey system (LiCor).

The test system of assay [3] is phospho-Iκβα (Ser32/Ser36). The assay can be described thus: Bio-Plex phospho-Iκβα. To be noted: HKe-3 cells, 1 µM. On the procedure: as §1
Assay [4] deals with phospho-MEK1 (Ser217/Ser221) and phospho-ERK1/2 (Thr202/Tyr204, Thr185/Tyr187). Kind of assay: Bio-Plex phospho-MEK1 and phospho-ERK1/2. The note with it: 45 minute exposure, 1 µM, K-RAS wild-type and mutant cells. On the procedure:
as §1

The subject of assay [5] is HT-29 (B-RAF^V600E/+). The assay can be described thus: Cell cycle analysis (propidium iodide FACS). The note with it: cell lines that express mutant B-RAF (HT-29). Here is the method:
as §3

The subject of assay [6] is colorectal cancer cells expressing mutant B-RAF (V600E) (HT-29, RKO). The assay can be described thus: Cell viability (Syto60). To be noted: HT-29 and RKO, 72 hours. On the procedure:
as §2, §3

The subject of assay [7] is HKe-3 (K-RAS^−/+). Kind of assay: Cell viability (Syto60). To be noted: 72 hours; for cooperation with / sensitization to AZ-628 (cell viability): K-RAS wild-type cells (HKe-3), 1 µM AZ-628. Here is the method:
as §2, §3

The test system of assay [8] is DKs-8. Kind of assay: Cell viability (Syto60). To be noted: DKs-8, 72 hours, 1 μM. On the procedure:
as §2, §3

Assay [9] deals with DLD-1 cells. The assay can be described thus: Cell viability (Syto60). The note with it: DLD-1, 72 hours, 1 μM. On the procedure: as §2, §3

Regarding `Cc1ccc(NC(=O)c2cccc(C(C)(C)C#N)c2)cc1Nc1ccc2ncn(C)c(=O)c2c1` [AZ-628], in assay [1], the JNK activation result is given as “strongly activated”. Moreover, the “sensitivity of cells expressing mutant K-RAS (cell viability)” value in assay [2] is given as “relatively sensitive”. In addition, the Iκβα phosphorylation result in assay [3] is “further induced”. Further, the “MEK and ERK phosphorylation” value in assay [4] is “suppressed MEK and ERK phosphorylation”.
`O=C(NOCC1CC1)c1ccc(F)c(F)c1Nc1ccc(I)cc1Cl` [CI-1040]: the cell cycle effect result in [5] was “induced G1 arrest”. Further, in [6], the “cell viability, combination of BAY61-3606 and CI-1040” value is “cooperated to produce an enhanced response”. Also, in assay [6] (single agent), the “sensitivity of cells expressing mutant B-RAF (cell viability)” value is “sensitive”. For the same molecule, the “sensitivity of cells expressing mutant K-RAS (cell viability)” value in [2] was “insensitive”.
On to `O=C(c1ccc(Nc2nccc(-c3cc4ccccc4s3)n2)cc1)N1CCC(N2CCCC2)CC1` [IKK inhibitor VII], for which, in assay [7] (HKe-3 cells with MAP4K2 knockdown, 1 µM + 1 µM AZ-628), the “sensitization to AZ-628 (cell viability)” value is on record as “abrogated the ability of IKK inhibitor VII to sensitize”. The “cooperation with / sensitization to AZ-628 (cell viability)” value in [7] is recorded as “enhanced the effect of AZ-628”.
On to `COc1cc(Nc2ncc(F)c(Nc3ccc4c(n3)NC(=O)C(C)(C)O4)n2)cc(OC)c1OC` [R406], for which the “sensitivity (cell viability)” value in assay [8] and in assay [9] was “did not exhibit sensitivity” throughout.
For `Oc1c2ccccc2c2c3c(cccc13)N=N2` [SP600125], the “cooperation with / sensitization to AZ-628 (cell viability)” value in assay [7] is “did not affect AZ-628 sensitivity”.
